The data set concerns skin, intrascapular area of the back. Kind of data set: 14-day cumulative irritation Patch Test, cleansers diluted to 25% w/w in distilled water, occlusive patch. The method, then: This was randomized, double-blind study. A sufficient number of subjects were recruited to ensure that 25 subjects completed the study. The 14-day cumulative irritation test was conducted as follows. Patching occurred for 14 consecutive days, except on Sundays. Patches applied on Saturday were left in place until Monday, when freshly prepared patches were applied. The designated patch test sites were approximately 2 cm×2 cm on the intrascapular area of the back. Approximately 0.2 mL of the test product was placed onto a Parke-Davis Readi-Bandage® occlusive patch that measured 2 cm×2 cm. Solutions were made by diluting the cleansers to 25% w/w in distilled water. The patch was then applied to the designated test site. The patches were secured with hypoallergenic tape (Scanpor {Allerderm} as needed). A 0.5% sodium dodecyl sulfate (SDS) solution was used as the control in the test.
Each day following application, the patches were removed, the sites evaluated and identical patches reapplied to the same test sites. All evaluations were made using the following 6-point scoring system: • 0=No evidence of any effect • +=Barely perceptible (minimal, faint, uniform or spotty erythema) numerically equivalent to 0.5 • 1=Mild (pink, uniform erythema covering most of the contact site) • 2=Moderate (pink-red, erythema uniform in the entire contact site) • 3=Marked (bright red erythema with/without petechiae or papules) • 4=Severe (deep red erythema with/without vesiculation or weeping)
If a dermal reaction of 3 or 4 occur with any of the test articles at any point during the study, further patch testing on that subject was terminated at the test site involved, and the attained score was assigned to that site for the subsequent scheduled test days.
Cumulative irritation scores, which were the sum of the numerical irritation grades assigned daily during the 14-day test period, were calculated at the end of the study to compare mildness of the test products. […] The data were statistically analyzed using Tukey-Kramer Comparison, and statistical significance was determined at the 95% confidence level.

SMILES strings stand for the structures.

With `CCCCCCCCCCCCOS(=O)(=O)[O-].[Na+]` [0.5% SDS Solution, sodium dodecyl sulfate], the “Total irritation score compared to 0.5% SDS solution” value reads like this: (Table 1, first patch test (Olay products)) 100%; (Table 1, second patch test (Dove Deep Moisture)) 100%. The “Patch test Total irritation score” value worked out at 783 (Table 1, first patch test (Olay products; 0.5% SDS control 783)) and 912 (Table 1, second patch test (Dove Deep Moisture; 0.5% SDS control 912)).
